Source: the supplement of paper PMC9663587

What was measured:
Assay in all cases: increase in dead-cell fraction, 72 h; higher = more death;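 note: breast cancer cell lines in 384-well plates, stained with Hoechst plus LIVE/DEAD far red dye and imaged, cells above an LDR intensity threshold counted dead, Hoechst-negative corpses included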
Paclitaxel = compound: CC(=O)O[C@H]1C(=O)[C@@]2(C)[C@H]([C@H](OC(=O)c3ccccc3)[C@]3(O)C[C@H](OC(=O)[C@H](O)[C@@H](NC(=O)c4ccccc4)c4ccccc4)C(C)=C1C3(C)C)[C@]1(OC(C)=O)CO[C@@H]1C[C@@H]2O [Paclitaxel]
Ipatasertib/GDC0068 = compound: CC(C)NC[C@@H](C(=O)N1CCN(c2ncnc3c2[C@H](C)C[C@H]3O)CC1)c1ccc(Cl)cc1 [Ipatasertib/GDC0068]
BVD523 = compound: CC(C)Nc1cc(-c2c[nH]c(C(=O)N[C@H](CO)c3cccc(Cl)c3)c2)c(Cl)cn1 [BVD523]
INK128/MLN0128 = compound: CC(C)n1nc(-c2ccc3oc(N)nc3c2)c2c(N)ncnc21 [INK128/MLN0128]
Volasertib/BI6727 = compound: CC[C@@H]1C(=O)N(C)c2cnc(Nc3ccc(C(=O)N[C@H]4CC[C@H](N5CCN(CC6CC6)CC5)CC4)cc3OC)nc2N1C(C)C [Volasertib/BI6727]
THZ-P1-2 = compound: CN(C)C/C=C/C(=O)NC1=CC=C(C=C1)C(=O)NC2=CC=CC(=C2)NC3=NC=NC(=C3)C4=CNC5=CC=CC=C54 [THZ-P1-2]
BSJ-01-175 = compound: CN(C)C/C=C/C(=O)Nc1ccc(O[C@@H]2CCC[C@@H](Nc3ncc(Cl)c(-c4c[nH]c5ccccc45)n3)C2)cc1 [BSJ-01-175]
[1] = compound: CNc1nc(-c2ccc3c(N)n[nH]c3c2)cc(N2C[C@@H](C(=O)NC3CCCCC3)CC[C@H]2C)n1
[2] = compound: CO[C@@H](C)Cn1c(=O)n(C)c2cnc3ccc(-c4cncc(C(C)(C)O)c4)cc3c21
[3] = compound: COc1cccc(OCCCN)c1-c1cc(Nc2cnc(C#N)cn2)n[nH]1
Dasatinib = compound: Cc1nc(Nc2ncc(C(=O)Nc3c(C)cccc3Cl)s2)cc(N2CCN(CCO)CC2)n1 [Dasatinib]
Tivantinib/ARQ197 = compound: O=C1NC(=O)[C@@H](c2cn3c4c(cccc24)CCC3)[C@@H]1c1c[nH]c2ccccc12 [Tivantinib/ARQ197]

AU565 was tested, and the “increase in dead-cell fraction” value (Paclitaxel; 0.0001 µM) was 0.0067, the “increase in dead-cell fraction” value (Paclitaxel; 0.0003162 µM) was 0.0015 and the “increase in dead-cell fraction” value (Paclitaxel; 0.001 µM) was 0.0164. The “increase in dead-cell fraction” value (Paclitaxel; 0.003162 µM) was 0.226, the “increase in dead-cell fraction” value (Paclitaxel; 0.01 µM) was 0.312 and the “increase in dead-cell fraction” value (Paclitaxel; 0.03162 µM) was 0.333. For the same cell line, the “increase in dead-cell fraction” value (Paclitaxel; 0.1 µM) was 0.324, the “increase in dead-cell fraction” value (Paclitaxel; 0.3162 µM) was 0.278 and the “increase in dead-cell fraction” value (Paclitaxel; 1 µM) was 0.303. The “increase in dead-cell fraction” value (Ipatasertib/GDC0068; 0.001 µM) was 0.0001, the “increase in dead-cell fraction” value (Ipatasertib/GDC0068; 0.003162 µM) was 0.0023 and the “increase in dead-cell fraction” value (Ipatasertib/GDC0068; 0.01 µM) was -0.0023. The “increase in dead-cell fraction” value (Ipatasertib/GDC0068; 0.03162 µM) was -0.0006, the “increase in dead-cell fraction” value (Ipatasertib/GDC0068; 0.1 µM) was 0.0018 and the “increase in dead-cell fraction” value (Ipatasertib/GDC0068; 0.3162 µM) was 0.0082. For the same cell line, the “increase in dead-cell fraction” value (Ipatasertib/GDC0068; 1 µM) was 0.0032, the “increase in dead-cell fraction” value (Ipatasertib/GDC0068; 3.162 µM) was 0.0084 and the “increase in dead-cell fraction” value (Ipatasertib/GDC0068; 10 µM) was 0.0293. For the same cell line, the “increase in dead-cell fraction” value (BVD523; 0.001 µM) was -0.0105, the “increase in dead-cell fraction” value (BVD523; 0.003162 µM) was -0.0083 and the “increase in dead-cell fraction” value (BVD523; 0.01 µM) was -0.0074. For the same cell line, the “increase in dead-cell fraction” value (BVD523; 0.03162 µM) was -0.0063, the “increase in dead-cell fraction” value (BVD523; 0.1 µM) was -0.0004 and the “increase in dead-cell fraction” value (BVD523; 0.3162 µM) was -0.0069. The “increase in dead-cell fraction” value (BVD523; 1 µM) was 0.0092, the “increase in dead-cell fraction” value (BVD523; 3.162 µM) was 0.0104 and the “increase in dead-cell fraction” value (BVD523; 10 µM) was 0.0436. For the same cell line, the “increase in dead-cell fraction” value (INK128/MLN0128; 0.0003162 µM) was 0.0039, the “increase in dead-cell fraction” value (INK128/MLN0128; 0.001 µM) was 0.0034 and the “increase in dead-cell fraction” value (INK128/MLN0128; 0.003162 µM) was 0.0155. The “increase in dead-cell fraction” value (INK128/MLN0128; 0.01 µM) was 0.0233, the “increase in dead-cell fraction” value (INK128/MLN0128; 0.03162 µM) was 0.0367 and the “increase in dead-cell fraction” value (INK128/MLN0128; 0.1 µM) was 0.0543. For the same cell line, the “increase in dead-cell fraction” value (INK128/MLN0128; 0.3162 µM) was 0.0671, the “increase in dead-cell fraction” value (INK128/MLN0128; 1 µM) was 0.084 and the “increase in dead-cell fraction” value (INK128/MLN0128; 3.162 µM) was 0.244. For the same cell line, the “increase in dead-cell fraction” value (Volasertib/BI6727; 0.0001 µM) was -0.0025, the “increase in dead-cell fraction” value (Volasertib/BI6727; 0.0003162 µM) was 0.0017 and the “increase in dead-cell fraction” value (Volasertib/BI6727; 0.001 µM) was -0.0005. For the same cell line, the “increase in dead-cell fraction” value (Volasertib/BI6727; 0.003162 µM) was 0.0085, the “increase in dead-cell fraction” value (Volasertib/BI6727; 0.01 µM) was 0.284 and the “increase in dead-cell fraction” value (Volasertib/BI6727; 0.03162 µM) was 0.353. The “increase in dead-cell fraction” value (Volasertib/BI6727; 0.1 µM) was 0.412, the “increase in dead-cell fraction” value (Volasertib/BI6727; 0.3162 µM) was 0.353 and the “increase in dead-cell fraction” value (Volasertib/BI6727; 1 µM) was 0.152. The “increase in dead-cell fraction” value (THZ-P1-2; 0.01 µM) was -0.0013, the “increase in dead-cell fraction” value (THZ-P1-2; 0.03162 µM) was -0.0105 and the “increase in dead-cell fraction” value (THZ-P1-2; 0.1 µM) was 0.0091. The “increase in dead-cell fraction” value (THZ-P1-2; 0.3162 µM) was -0.0029, the “increase in dead-cell fraction” value (THZ-P1-2; 1 µM) was -0.0001 and the “increase in dead-cell fraction” value (THZ-P1-2; 3.162 µM) was -0.0022. The “increase in dead-cell fraction” value (THZ-P1-2; 10 µM) was 0.569, the “increase in dead-cell fraction” value (BSJ-01-175; 0.001 µM) was -0.006 and the “increase in dead-cell fraction” value (BSJ-01-175; 0.003162 µM) was 0.0214. For the same cell line, the “increase in dead-cell fraction” value (BSJ-01-175; 0.01 µM) was 0.121, the “increase in dead-cell fraction” value (BSJ-01-175; 0.03162 µM) was 0.26 and the “increase in dead-cell fraction” value (BSJ-01-175; 0.1 µM) was 0.296. For the same cell line, the “increase in dead-cell fraction” value (BSJ-01-175; 0.3162 µM) was 0.35, the “increase in dead-cell fraction” value (BSJ-01-175; 1 µM) was 0.443 and the “increase in dead-cell fraction” value (BSJ-01-175; 3.162 µM) was 0.432. The “increase in dead-cell fraction” value (BSJ-01-175; 10 µM) was 0.68, the “increase in dead-cell fraction” value ([1]; 0.001 µM) was -0.0175 and the “increase in dead-cell fraction” value ([1]; 0.003162 µM) was 0.001. The “increase in dead-cell fraction” value ([1]; 0.01 µM) was 0.0046, the “increase in dead-cell fraction” value ([1]; 0.03162 µM) was 0.0008 and the “increase in dead-cell fraction” value ([1]; 0.1 µM) was 0.0065. The “increase in dead-cell fraction” value ([1]; 0.3162 µM) was 0.0014, the “increase in dead-cell fraction” value ([1]; 1 µM) was 0.0253 and the “increase in dead-cell fraction” value ([1]; 3.162 µM) was 0.0252. For the same cell line, the “increase in dead-cell fraction” value ([1]; 10 µM) was 0.0432, the “increase in dead-cell fraction” value ([2]; 0.001 µM) was 0.0299 and the “increase in dead-cell fraction” value ([2]; 0.003162 µM) was 0.0425. For the same cell line, the “increase in dead-cell fraction” value ([2]; 0.01 µM) was 0.0372, the “increase in dead-cell fraction” value ([2]; 0.03162 µM) was 0.0503 and the “increase in dead-cell fraction” value ([2]; 0.1 µM) was 0.0586. The “increase in dead-cell fraction” value ([2]; 0.3162 µM) was 0.0998, the “increase in dead-cell fraction” value ([2]; 1 µM) was 0.074 and the “increase in dead-cell fraction” value ([2]; 3.162 µM) was 0.091. The “increase in dead-cell fraction” value ([2]; 10 µM) was 0.511, the “increase in dead-cell fraction” value ([3]; 10 pM) was -0.002 and the “increase in dead-cell fraction” value ([3]; 31.6 pM) was -0.0013. The “increase in dead-cell fraction” value ([3]; 0.0001 µM) was -0.0035, the “increase in dead-cell fraction” value ([3]; 0.0003162 µM) was -0.0022 and the “increase in dead-cell fraction” value ([3]; 0.001 µM) was 0.139. The “increase in dead-cell fraction” value ([3]; 0.003162 µM) was 0.168, the “increase in dead-cell fraction” value ([3]; 0.01 µM) was 0.194 and the “increase in dead-cell fraction” value ([3]; 0.03162 µM) was 0.187. For the same cell line, the “increase in dead-cell fraction” value ([3]; 0.1 µM) was 0.211, the “increase in dead-cell fraction” value (Dasatinib; 0.001 µM) was 0.0065 and the “increase in dead-cell fraction” value (Dasatinib; 0.003162 µM) was 0.0017. The “increase in dead-cell fraction” value (Dasatinib; 0.01 µM) was 0.0035, the “increase in dead-cell fraction” value (Dasatinib; 0.03162 µM) was -0.0007 and the “increase in dead-cell fraction” value (Dasatinib; 0.1 µM) was -0.003. For the same cell line, the “increase in dead-cell fraction” value (Dasatinib; 0.3162 µM) was 0.0019, the “increase in dead-cell fraction” value (Dasatinib; 1 µM) was -0.0024 and the “increase in dead-cell fraction” value (Dasatinib; 3.162 µM) was 0.0091. For the same cell line, the “increase in dead-cell fraction” value (Dasatinib; 10 µM) was 0.0365, the “increase in dead-cell fraction” value (Tivantinib/ARQ197; 0.001 µM) was -0.0007 and the “increase in dead-cell fraction” value (Tivantinib/ARQ197; 0.003162 µM) was -0.0033. The “increase in dead-cell fraction” value (Tivantinib/ARQ197; 0.01 µM) was -0.0012, the “increase in dead-cell fraction” value (Tivantinib/ARQ197; 0.03162 µM) was -0.0029 and the “increase in dead-cell fraction” value (Tivantinib/ARQ197; 0.1 µM) was 0.0087. For the same cell line, the “increase in dead-cell fraction” value (Tivantinib/ARQ197; 0.3162 µM) was 0.0601, the “increase in dead-cell fraction” value (Tivantinib/ARQ197; 1 µM) was 0.263 and the “increase in dead-cell fraction” value (Tivantinib/ARQ197; 3.162 µM) was 0.306. For the same cell line, the “increase in dead-cell fraction” value (Tivantinib/ARQ197; 10 µM) was 0.3.
